# In ChEMBL document CHEMBL1641502, “The identification of substituted benzothiophene derivatives as PGE(2) subtype 4 receptor antagonists: From acid to non-acid” (Bioorg Med Chem Lett, 2011):
# pIC50, pKi: −log10 of the molar value.
# What was measured:
# [1] = target: T1, Prostaglandin E2 receptor EP4 subtype (Homo sapiens, UniProt P35408); test: Binding affinity to EP4 receptor
# [2] = target: T1, Prostaglandin E2 receptor EP4 subtype; test: Binding affinity to EP4 receptor in presence of 10% HSA
# [3] = target: T1, Prostaglandin E2 receptor EP4 subtype; test: Antagonist activity at human EP4 receptor in HEK293 cells by cell-based functional assay
# [4] = target: T2, Prostaglandin E2 receptor EP1 subtype (Homo sapiens, UniProt P34995); test: Binding affinity to EP1 receptor
# T2 sequence (P34995 whole entry): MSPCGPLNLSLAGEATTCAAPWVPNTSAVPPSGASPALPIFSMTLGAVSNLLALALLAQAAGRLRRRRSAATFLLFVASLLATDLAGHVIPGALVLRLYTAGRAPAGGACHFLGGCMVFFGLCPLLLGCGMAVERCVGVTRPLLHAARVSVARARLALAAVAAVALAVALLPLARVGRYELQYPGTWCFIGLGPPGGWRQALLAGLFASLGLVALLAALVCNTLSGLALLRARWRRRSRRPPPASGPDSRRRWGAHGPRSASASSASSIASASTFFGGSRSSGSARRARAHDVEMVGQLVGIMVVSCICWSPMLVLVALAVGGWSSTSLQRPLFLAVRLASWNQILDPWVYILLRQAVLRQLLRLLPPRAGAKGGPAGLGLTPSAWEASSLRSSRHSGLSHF
# [5] = target: Prostaglandin E2 receptor EP2 subtype (Homo sapiens, UniProt P43116); test: Binding affinity to EP2 receptor
# [6] = target: T3, Prostaglandin E2 receptor EP3 subtype (Homo sapiens, UniProt P43115); test: Binding affinity to EP3 receptor
# T3 sequence (P43115 whole entry): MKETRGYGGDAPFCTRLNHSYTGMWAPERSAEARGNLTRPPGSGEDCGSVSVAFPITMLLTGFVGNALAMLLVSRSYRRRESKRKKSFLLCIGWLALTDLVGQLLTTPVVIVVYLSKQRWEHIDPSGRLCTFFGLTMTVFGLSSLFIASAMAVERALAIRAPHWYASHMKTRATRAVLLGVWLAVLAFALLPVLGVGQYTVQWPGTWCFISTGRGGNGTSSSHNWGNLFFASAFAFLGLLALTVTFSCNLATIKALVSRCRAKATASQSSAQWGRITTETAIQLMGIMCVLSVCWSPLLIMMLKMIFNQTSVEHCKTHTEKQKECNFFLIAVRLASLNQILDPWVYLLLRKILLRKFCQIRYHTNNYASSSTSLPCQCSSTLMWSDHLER
# [7] = target: T4, Prostaglandin D2 receptor 2 (Homo sapiens, UniProt Q9Y5Y4); test: Binding affinity to CRTH2 receptor
# T4 sequence (Q9Y5Y4 whole entry): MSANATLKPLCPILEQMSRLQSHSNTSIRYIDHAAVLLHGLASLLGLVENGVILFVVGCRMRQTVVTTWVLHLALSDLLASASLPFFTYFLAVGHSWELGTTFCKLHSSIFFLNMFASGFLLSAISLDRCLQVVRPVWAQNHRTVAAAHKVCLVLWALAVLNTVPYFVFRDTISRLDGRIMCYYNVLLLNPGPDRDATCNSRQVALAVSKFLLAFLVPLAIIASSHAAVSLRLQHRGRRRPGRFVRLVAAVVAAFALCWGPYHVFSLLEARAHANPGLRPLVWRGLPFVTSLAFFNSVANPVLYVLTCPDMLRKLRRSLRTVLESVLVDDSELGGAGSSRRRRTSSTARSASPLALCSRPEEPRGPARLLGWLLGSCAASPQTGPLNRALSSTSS
# [8] = Binding affinity to DP receptor
# [9] = target: Prostaglandin F2-alpha receptor (Homo sapiens, UniProt P43088); test: Binding affinity to FP receptor
# [10] = target: Prostacyclin receptor (Homo sapiens, UniProt P43119); test: Binding affinity to IP receptor
# [11] = target: T5, Thromboxane A2 receptor (Homo sapiens, UniProt P21731); test: Binding affinity to TP receptor
# T5 sequence (P21731 whole entry): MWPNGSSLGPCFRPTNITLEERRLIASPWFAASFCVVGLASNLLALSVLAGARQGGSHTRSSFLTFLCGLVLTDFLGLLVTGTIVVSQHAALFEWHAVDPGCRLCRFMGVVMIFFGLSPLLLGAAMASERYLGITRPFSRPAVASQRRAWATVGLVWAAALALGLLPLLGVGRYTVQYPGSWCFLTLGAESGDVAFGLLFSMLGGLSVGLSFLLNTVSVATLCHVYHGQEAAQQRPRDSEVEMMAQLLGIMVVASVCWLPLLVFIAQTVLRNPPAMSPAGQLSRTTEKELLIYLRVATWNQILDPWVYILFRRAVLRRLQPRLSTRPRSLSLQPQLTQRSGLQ
# T1 sequence (P35408 whole entry): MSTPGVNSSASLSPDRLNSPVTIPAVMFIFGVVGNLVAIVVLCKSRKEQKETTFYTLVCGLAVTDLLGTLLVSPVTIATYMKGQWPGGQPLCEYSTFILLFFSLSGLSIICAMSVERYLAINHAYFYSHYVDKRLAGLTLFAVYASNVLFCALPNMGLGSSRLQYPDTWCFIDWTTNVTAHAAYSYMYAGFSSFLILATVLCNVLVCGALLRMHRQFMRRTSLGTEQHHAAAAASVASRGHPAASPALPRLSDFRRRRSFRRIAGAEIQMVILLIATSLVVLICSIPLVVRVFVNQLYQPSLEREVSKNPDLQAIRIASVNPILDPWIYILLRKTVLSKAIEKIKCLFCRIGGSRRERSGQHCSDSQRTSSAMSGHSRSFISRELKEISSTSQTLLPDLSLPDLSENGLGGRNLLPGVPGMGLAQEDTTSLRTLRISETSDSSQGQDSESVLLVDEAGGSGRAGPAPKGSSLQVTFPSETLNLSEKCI
# Chain of Prostaglandin F2-alpha receptor (P43088 whole entry): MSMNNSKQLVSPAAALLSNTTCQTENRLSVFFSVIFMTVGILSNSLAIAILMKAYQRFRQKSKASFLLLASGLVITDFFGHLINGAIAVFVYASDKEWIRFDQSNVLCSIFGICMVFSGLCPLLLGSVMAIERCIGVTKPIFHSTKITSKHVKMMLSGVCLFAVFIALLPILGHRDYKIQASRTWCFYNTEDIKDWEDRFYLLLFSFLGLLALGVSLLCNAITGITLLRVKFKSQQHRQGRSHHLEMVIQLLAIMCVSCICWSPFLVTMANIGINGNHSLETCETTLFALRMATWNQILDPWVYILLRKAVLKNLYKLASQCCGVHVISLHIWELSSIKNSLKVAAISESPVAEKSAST
# Chain of Prostaglandin E2 receptor EP2 subtype (P43116 whole entry): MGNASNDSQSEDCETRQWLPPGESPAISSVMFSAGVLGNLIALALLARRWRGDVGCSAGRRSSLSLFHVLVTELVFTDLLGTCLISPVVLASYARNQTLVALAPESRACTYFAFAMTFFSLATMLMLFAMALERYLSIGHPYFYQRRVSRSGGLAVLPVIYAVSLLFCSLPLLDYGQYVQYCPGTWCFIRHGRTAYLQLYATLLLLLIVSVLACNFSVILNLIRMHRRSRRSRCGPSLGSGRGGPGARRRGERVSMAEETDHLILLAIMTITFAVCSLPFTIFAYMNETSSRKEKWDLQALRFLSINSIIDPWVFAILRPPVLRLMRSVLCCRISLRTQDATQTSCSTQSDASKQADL
# Chain of Prostacyclin receptor (P43119 whole entry): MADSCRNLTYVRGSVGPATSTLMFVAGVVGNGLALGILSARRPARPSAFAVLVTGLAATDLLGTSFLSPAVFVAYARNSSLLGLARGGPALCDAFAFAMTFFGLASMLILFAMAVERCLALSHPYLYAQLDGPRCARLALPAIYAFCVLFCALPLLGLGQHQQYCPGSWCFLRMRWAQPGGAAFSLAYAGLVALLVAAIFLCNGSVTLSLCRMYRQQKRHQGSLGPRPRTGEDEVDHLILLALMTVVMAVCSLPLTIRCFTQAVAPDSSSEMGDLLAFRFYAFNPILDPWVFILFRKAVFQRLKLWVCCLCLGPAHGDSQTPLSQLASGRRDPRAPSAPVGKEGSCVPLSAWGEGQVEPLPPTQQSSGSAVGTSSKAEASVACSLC
pKi [1],pKi [2],Compound,other results
8.52,7.77,COc1ccccc1C1(C(=O)NCCc2ccc(-c3c(C(=O)N(C)C)sc4c(C)cc(C)cc34)cc2)CC1,–
9.70,8.47,COc1ccccc1CC(=O)NCCc1ccc(-c2c(C(=O)N(C)C)sc3c(C)cc(C)cc23)cc1,pIC50 [3]: 8.62
9.40,8.66,Cc1cc(C)c2sc(C(=O)N(C)C)c(-c3ccc(CCNC(=O)NS(=O)(=O)c4ccc(Cl)cc4)cc3)c2c1,–
8.80,7.77,Cc1cc(C)c2sc(C(=O)N(C)C)c(-c3ccc(CCNC(=O)Cc4c(Cl)cccc4Cl)cc3)c2c1,–
9.26,8.06,Cc1ccc(S(=O)(=O)NC(=O)NCCc2ccc(-c3c(C(=O)N(C)C)sc4c(Cl)cc(C(F)(F)F)cc34)cc2)cc1,–
6.80,5.64,Cc1cc(C)c2sc(C(=O)N(C)C)c(-c3ccc(-c4nn[nH]n4)cc3)c2c1,–
8.64,7.40,Cc1cc(C)c2sc(C(=O)N(C)C)c(-c3ccc(CCNC(=O)Cc4ccccn4)cc3)c2c1,–
9.39,7.96,Cc1ccc(S(=O)(=O)NC(=O)NCCc2ccc(-c3c(C(=O)N4CCCC4)sc4c(C)cc(C)cc34)cc2)cc1,–
9.01,7.41,COC(=O)c1sc2c(C)cc(C)cc2c1-c1ccc(CCNC(=O)NS(=O)(=O)c2ccc(C)cc2)cc1,–
9.01,7.38,Cc1cc(C)c2sc(C(=O)N(C)C)c(-c3ccc(CCNc4ncccn4)cc3)c2c1,–
9.38,8.57,Cc1cc(C)c2sc(C(=O)N(C)C)c(-c3ccc(CCNC(=O)NS(=O)(=O)c4ccccc4Cl)cc3)c2c1,–
9.28,7.40,Cc1ccc(S(=O)(=O)NC(=O)NCCc2ccc(-c3c(C(=O)N(C)C)sc4c(F)cc(F)cc34)cc2)cc1,–
9.11,7.72,Cc1ccc(S(=O)(=O)NC(=O)NCCc2ccc(-c3c(C(=O)N(C)C)sc4c(C)ccc(C)c34)cc2)cc1,–
9.30,6.87,CNC(=O)c1sc2c(C)cc(C)cc2c1-c1ccc(CCNC(=O)NS(=O)(=O)c2ccc(C)cc2)cc1,–
8.42,6.19,Cc1ccc(S(=O)(=O)NC(=O)NCCc2ccc(-c3c(C(N)=O)sc4c(C)cc(C)cc34)cc2)cc1,–
9.27,8.85,Cc1ccc(S(=O)(=O)NC(=O)NCCc2ccc(-c3c(C(=O)N(C)C)sc4c(C)cc(C)cc34)cc2)cc1,pKi [4]: < 5.02; pKi [5]: 5.48; pKi [6]: 6.28; pKi [7]: < 5.14; pKi [8]: 7.14; pKi [9]: < 5.06; pKi [10]: < 5.11; pKi [11]: 7.21; pIC50 [3]: 8.92
9.23,7.77,Cc1ccc(S(=O)(=O)NC(=O)NCCc2ccc(-c3c(C(=O)N(C)C)sc4c(Cl)cc(Cl)cc34)cc2)cc1,–
7.17,5.70,Cc1cc(C)c2sc(C(=O)N(C)C)c(-c3ccc(CCNC(=O)OC(C)(C)C)cc3)c2c1,–
